From publication PMC4516563 (Biochimica et biophysica acta, 2015)

Experiments:
[1] = system: human colon HCT116; details: disc diffusion, 30-45 ug per disc, 7-10 days; result in words
[2] = system: human brain U251N; details: disc diffusion, 30-45 ug per disc, 7-10 days; result in words
[3] = system: human pancreatic cancer PANC1; details: disc diffusion, 30-45 ug per disc, 7-10 days; result in words
[4] = pharmacokinetic studies, clinical trials in patients; cited from earlier work

Kahalalide F [KF]
cytotoxicity based on the zone assay, HCT-116 [1]: minimal
cytotoxicity based on the zone assay, U251N [2]: minimal
cytotoxicity based on the zone assay, PANC-1 [3]: minimal
half-life [4]: approximately 30 min
